{"source": "patent US20130089568A1", "about": "“HAIR GROWTH STIMULATOR BASED ON ECKLONIA CAVA EXTRACT, PREPARATION METHOD THEREOF, AND COSMETIC COMPOSITION CONTAINING THE SAME” (priority 2011, published 2013)", "format_in_all_cases": "cell-based", "key": {"hair-related cells": {"test_system": "hair-related cells", "assay": "Test of isolated active substances using hair-related cells in an in vitro system", "from_the_text": "The 7′-fluoroeckol compound is disclosed in Korean Patent Application No. 10-2011-0000141. The present invention aims to find a dioxinodehydroeckol compound and an Ecklonia cava extract using an extraction method capable of improving hair growth effects."}, "[1]": {"test_system": "human follicle dermal papilla cells", "assay": "Cell viability of human follicle dermal papilla cells (MTT assay)", "quoted_text": "The cell viability of human follicle dermal papilla cells were measured using a 3-(4,5-dimethylthiazole-2-yl)-2,5-diphenyl-tetrazolium bromide [MTT] assay.\nSpecifically, 100 μL of cells were dispensed into each well of 96-well plates at a concentration of 1×10^6 cells/ml and cultured for 24 hours. A sample was prepared in a medium free of FBS and 1% penicillin/streptomycin at various concentrations, and the cells was treated with the sample and incubated for 24 hours. The cells were treated with an MTT solution (5 mg/mL) for 3 hours, and then the MTT was reduced and the medium was carefully removed such that the produced formazan was not removed. Then, 100 μL of dimethyl sulfoxide (DMSO) was dispensed into each well, and after 30 minutes, the absorbance at 570 nm was measured."}, "[2]": {"test_system": "human follicle dermal papilla cells", "assay": "Protein expression test (Western blotting) in human follicle dermal papilla cells", "settings": "0.1 μM, 24 hours", "procedure": "(§1) Human follicle dermal papilla cells were purchased from Promo Cell (Heidelberg, Germany). The cells were cultured in a ready-to-use HFDPC medium composed of a basal medium, FCS (fetal calf serum) and a supplement kit Promo Cell (Heidelberg, Germany) containing basal FGF and insulin. For subculture, a kit containing HBSS (HEPES buffered saline), trypsin/EDTA solution and neutralizing solution (Promo Cell, Heidelberg, Germany) was used. Human follicle dermal papilla cells at passages 4 to 6 were used in the test and cultured in a T-25 flask containing 5 ml of medium under the conditions of 37° C. and 5% CO2.\nIn order to examine the mechanisms of action of the purified extract of Ecklonia cava and the dioxinodehydroeckol compound on the proliferation of human follicle dermal papilla cells, Western blotting was carried out according to standard protocol.\nSpecifically, the cells were seeded into a 6-well medium together with a serum-free medium and cultured for 24 hours (1.0×10^6 cells/well). Then, the medium was replaced with a fresh medium, and the cells were treated with various concentrations of a sample for 1-24 hours. […] The cells were cultured with horseradish-peroxidase-conjugated secondary antibody at room temperature, and then immune-reactive protein was detected using an enhanced chemiluminescence (ECL) analysis kit according to the manufacturer's instruction. […]"}, "[3]": {"test_system": "human follicle dermal papilla cells", "assay": "mRNA expression (RT-PCR) in human follicle dermal papilla cells", "settings": "0.1 μM, 24 hours", "procedure": "as §1\nIn order to examine the mechanisms of action of the purified extract of Ecklonia cava and the dioxinodehydroeckol compound on the proliferation of human follicle dermal papilla cells, reverse transcription polymerase chain reaction (RT-PCR) was performed according to a standard protocol. Specifically, the cells were seeded into a 6-well plate together with a serum-free medium and cultured for 24 hours (1.0×10^6 cells/well). Then, the medium was replaced with a fresh medium, and the cells were treated with various concentrations of a test material for 24 hours and then lysed with TRIzol® (Invitrogen)."}, "human hair tissue": {"test_system": "human hair tissue", "assay": "Evaluation of hair growth by culture of human hair tissue", "settings": "0.1 μM", "procedure": "Human hair tissue provided from Immunobiology Laboratory, Kyungpook National University, was used in the test and cultured in a CO2 incubator at 37° C. with Williams E media (Sigma, USA) containing 2 mM L-glutamin, 100 U/ml streptomycin and 10 ng/ml hydrocortisone. The tissue was cultured with various concentrations of the test material for 6 days, and the length of the hair tissue was measured at days 3 and 6."}}}
{"molecule": "7′-fluoroeckol [7′-fluoroeckol compound]", "values": [{"measurement": "influence on hair-related cells", "setting": "hair-related cells", "value": "specifically influence hair-related cells"}]}
{"molecule": "Nc1cc(N2CCCCC2)nc(N)[n+]1[O-]", "note": "[Minoxidil, reference compound]", "values": [{"measurement": "cell viability", "setting": "[1]; 1 μM, listed as minoidil", "value": 121, "unit": "%"}, {"measurement": "viability at 1 µM", "setting": "[1]; Homo sapiens, 1 μM", "value": 119, "unit": "%"}]}
{"molecule": "Oc1cc(O)c2oc3cc(O)c4oc5cc(O)cc(O)c5oc4c3oc2c1", "note": "[dioxinodehydroeckol]", "values": [{"measurement": "viability at 0.1 µM", "setting": "[1]; Homo sapiens, 0.1 μM, read-out: highest cell viability", "value": 142, "unit": "%"}, {"measurement": "viability of the human follicle dermal papilla cells compared to untreated control", "setting": "[1]; concentration range of 0.001-5 μM, FIG. 1c", "value": "significantly increased"}, {"measurement": "expression level of BMP2/4 protein, increase compared to untreated control", "setting": "[2]", "value": 1.8, "unit": "times"}, {"measurement": "expression level of β-catenin protein, increase compared to untreated control", "setting": "[2]", "value": 2.0, "unit": "times"}, {"measurement": "expression level of ALP mRNA, increase", "setting": "[3]", "value": 1.5, "unit": "times"}, {"measurement": "expression level of VCAN mRNA, increase", "setting": "[3]", "value": 1.8, "unit": "times"}, {"measurement": "expression level of VEGF mRNA, increase", "setting": "[3]", "value": 1.3, "unit": "times"}, {"measurement": "influence on hair-related cells", "setting": "hair-related cells", "value": "specifically influence hair-related cells"}, {"measurement": "increased hair length", "setting": "human hair tissue; day 3", "value": 0.84, "unit": "mm"}, {"measurement": "increased hair length", "setting": "human hair tissue; day 6", "value": 1.43, "unit": "mm"}]}
